In ChEMBL document CHEMBL1156062, “Synthesis, SAR, and X-ray structure of tricyclic compounds as potent FBPase inhibitors” (Bioorg Med Chem Lett, 2009):

Target: T1, Fructose-1,6-bisphosphatase 1 (Homo sapiens, UniProt P09467)
T1 sequence (P09467 whole entry): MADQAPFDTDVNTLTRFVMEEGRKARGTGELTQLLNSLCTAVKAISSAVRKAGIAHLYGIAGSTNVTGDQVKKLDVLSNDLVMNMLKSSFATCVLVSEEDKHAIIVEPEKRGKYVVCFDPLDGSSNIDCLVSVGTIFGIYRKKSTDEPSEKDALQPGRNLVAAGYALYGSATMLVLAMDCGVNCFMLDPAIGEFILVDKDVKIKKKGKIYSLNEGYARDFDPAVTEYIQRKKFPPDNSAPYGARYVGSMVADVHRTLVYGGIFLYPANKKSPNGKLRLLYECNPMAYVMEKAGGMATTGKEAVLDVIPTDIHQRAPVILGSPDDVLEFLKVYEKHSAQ
Experiment: Inhibition of human liver FBPase

| IC50 [µM] | SMILES |
| --- | --- |
| 18.7 | Nc1nc2c(s1)Cc1ccc(P(=O)(O)O)cc1-2 |
| 112 | Nc1nc2c(s1)CCc1cc(OP(=O)(O)O)ccc1-2 |
| 0.169 | Nc1nc2c(s1)CCCc1ccc(P(=O)(O)O)cc1-2 |
| 146 | Nc1nc2c(s1)Cc1cc(OP(=O)(O)O)ccc1-2 |
| 0.84 | Nc1nc2c(s1)CCc1ccc(CP(=O)(O)O)cc1-2 |
| 112 | Nc1nc2c(s1)Cc1cc(OCP(=O)(O)O)ccc1-2 |
| 21.5 | Nc1nc2c(s1)CCc1cccc(OCP(=O)(O)O)c1-2 |
| 354 | Nc1nc2c(s1)CCc1cc(P(=O)(O)O)ccc1-2 |
| 9.32 | Nc1nc2c(s1)CCc1ccc(P(=O)(O)O)cc1-2 |
| 16.4 | Nc1nc2c(s1)CCc1cc(OCP(=O)(O)O)ccc1-2 |
| 91.9 | Nc1nc2c(s1)Cc1cc(P(=O)(O)O)ccc1-2 |
| 0.047 | Nc1nc2c(s1)CCc1ccc(C(F)(F)P(=O)(O)O)cc1-2 |
| 307 | Nc1nc2c(s1)Cc1ccc(OP(=O)(O)O)cc1-2 |
| 0.022 | Nc1nc2c(s1)CCCc1ccc(OP(=O)(O)O)cc1-2 |
| 28.4 | Nc1nc2c(s1)Cc1cccc(P(=O)(O)O)c1-2 |
| 335 | Nc1nc2c(s1)CCc1cccc(OP(=O)(O)O)c1-2 |
| 19.1 | Nc1nc2c(s1)CCc1ccc(OCP(=O)(O)O)cc1-2 |
| 112 | Nc1nc2c(s1)Cc1ccc(OCP(=O)(O)O)cc1-2 |
| 354 | Nc1nc2c(s1)CCc1cccc(P(=O)(O)O)c1-2 |
| 0.07 | Nc1nc2c(s1)Cc1cccc(OP(=O)(O)O)c1-2 |
| 41.7 | Nc1nc2c(s1)CCCc1ccc(OCP(=O)(O)O)cc1-2 |
